Results on four molecules are retold here after patent US9517245B2, “Sorafenib-microRNA combination therapy for liver cancer” (Mirna Therapeutics, Inc., priority 2014, dated 2016).

Molecules are shown by their SMILES. pIC50: −log10 of the molar value. Like-named read-outs stand apart in the source and are kept apart here.

The test system of series [1] is four liver cancer cell lines (Hep3b, HepG2, C3A, Huh7). In words: combination studies in four liver cancer cell lines (overall synergy statements). Type of series: cell-based. Particulars: combination with miRNA mimic instead of sorafenib; data not shown.
A further series deals with HepG2 liver cancer cells. In words: sorafenib dose-effect, AlamarBlue cell proliferation. Type of series: cell-based. Particulars: Homo sapiens, 72 h, AlamarBlue 3 days post drug treatment, range from two or three experiments. The method, then:
(§1) FIG. 2 illustrates dose-effect curves of sorafenib in liver cancer cells. Cells were seed in 96-well plate at 2000 cells per well. Three days after seeding the cells, sorafenib in a serial dilution from (0.1-100 μM) was added to the medium. Cell proliferation or percent inhibition was determined by AlamarBlue 3 days post drug treatment. Data were normalized to cells treated with sorafenib solvent (1% DMSO final concentration).
(§2) Sorafenib dose response curves were established in each cell line, and the cell proliferation was determined using AlamarBlue (Invitrogen) 3 days post drug treatment. Nonlinear regression and IC50 values were calculated using the GraphPad (Prism) software.
(§3) FIG. 2 illustrates dose-effect curves of sorafenib in liver cancer cells. Cells were seed in 96-well plate at 2000 cells per well. Three days after seeding the cells, sorafenib in a serial dilution from (0.1-100 μM) was added to the medium. Cell proliferation or percent inhibition was determined by AlamarBlue 3 days post drug treatment, and IC50 values were calculated using the GraphPad software.
Background: Alamar Blue is a resazurin reagent that responds to reducing activity.

The test system of the next series is C3A liver cancer cells. The description is as above. The series is classed as cell-based. Particulars: 72 h, AlamarBlue 3 days post drug treatment, range from two or three experiments. Here is the method: as §1, §2, §3
Another series relates to Hep3b liver cancer cells. The series is described as above. Particulars: Homo sapiens, 72 h, AlamarBlue 3 days post drug treatment, range from two or three experiments. Type of series: cell-based. Here is the method: as §1, §2, §3
The test system of the next series is Huh7 liver cancer cells. The description is as above. The series is classed as cell-based. Particulars: Homo sapiens, Huh-7, 72 h, AlamarBlue 3 days post drug treatment, range from two or three experiments. Here is the method:
as §1, §2, §3

The conditions of series [2]: cited from earlier work.

Turning to `COc1cccc2c1C(=O)c1c(O)c3c(c(O)c1C2=O)C[C@@](O)(C(=O)CO)C[C@@H]3O[C@H]1C[C@H](N)[C@H](O)[C@H](C)O1` [doxorubicin], the “synergy in combinations with other chemotherapeutic agents” value in series [1] was “synergy was not identified”.
On to `CNC(=O)c1cc(Oc2ccc(NC(=O)Nc3ccc(Cl)c(C(F)(F)F)c3)cc2)ccn1` [Sorafenib], for which the pIC50 is 5.05 to 5.17 in the series with HepG2 liver cancer cells, 4.93 to 4.97 in the series on C3A liver cancer cells, 4.90 to 5.27 in the series with Hep3b liver cancer cells and 4.80 to 4.88 in the series on Huh7 liver cancer cells.
For the molecule `O=c1[nH]cc(F)c(=O)[nH]1` [5-FU], in series [1], the “synergy in combinations with other chemotherapeutic agents” value was “synergy was not identified”.
Regarding `CNC(=O)c1cc(Oc2ccc(NC(=O)Nc3ccc(Cl)c(C(F)(F)F)c3)cc2)ccn1.Cc1ccc(S(=O)(=O)O)cc1` [Sorafenib tosylate, 4-(4-{3-[4-Chloro-3 (trifluoromethyl)phenyl]ureido}phenoxy) N-methylpyridine-2-carboxamide 4-methylbenzenesulfonate], the solubility entry in series [2] (PEG 400) was “soluble”; in series [2] (aqueous media), “practically insoluble”; in series [2] (ethanol) it was “slightly soluble”.

As usually defined, the pIC50 is the negative decadic logarithm of the IC50, by convention in mol/L.
